The results in this text go back to ChEMBL document CHEMBL5303573, “Mapping human microbiome drug metabolism by gut bacteria and their genes” (Nature, 2019).

Each structure is given as a SMILES string.

Data set [1] in a line: The drug is tested on Bacteroides coprophilus strain: DSM18228 for biotransformation. The drug concentrations were measured before and after a 12-h incubation by liquid-chromatography-coupled mass spectrometry (LC–MS). As to conditions: 2 µM.
A short description of data set [2]: The drug is tested on Bacteroides fragilis strain: HMW615 for biotransformation. The drug concentrations were measured before and after a 12-h incubation by liquid-chromatography-coupled mass spectrometry (LC–MS). Conditions: 2 µM.
A short description of data set [3]: The drug is tested on Bacteroides pectinophilus strain: ATCC43243 for biotransformation. The drug concentrations were measured before and after a 12-h incubation by liquid-chromatography-coupled mass spectrometry (LC–MS). Conditions: 2 µM.
The nature of data set [4]: The drug is tested on Bacteroides xylanisolvens strain: DSM18836 for biotransformation. The drug concentrations were measured before and after a 12-h incubation by liquid-chromatography-coupled mass spectrometry (LC–MS). Conditions: 2 µM.
Data set [5] in a line: The drug is tested on Blautia hansenii strain: DSM20583 for biotransformation. The drug concentrations were measured before and after a 12-h incubation by liquid-chromatography-coupled mass spectrometry (LC–MS). Conditions: 2 µM.
The nature of data set [6]: The drug is tested on Coprococcus comes strain: ATCC27758 for biotransformation. The drug concentrations were measured before and after a 12-h incubation by liquid-chromatography-coupled mass spectrometry (LC–MS). Format: ADME. On the set-up: dose 2 uM, timepoint 0 vs 12 hours. Conditions: 2 µM.
Data set [7] can be described thus: The drug is tested on Dorea formicigenerans strain: ATCC27755 for biotransformation. The drug concentrations were measured before and after a 12-h incubation by liquid-chromatography-coupled mass spectrometry (LC–MS). As to conditions: 2 µM.
A short description of data set [8]: The drug is tested on Ruminococcus gnavus strain: ATCC29149 for biotransformation. The drug concentrations were measured before and after a 12-h incubation by liquid-chromatography-coupled mass spectrometry (LC–MS). As to conditions: mediterraneibacter gnavus, 2 µM.
The nature of data set [9]: The drug is tested on Edwardsiella tarda strain: ATCC23685 for biotransformation. The drug concentrations were measured before and after a 12-h incubation by liquid-chromatography-coupled mass spectrometry (LC–MS). Conditions: 2 µM.
Data set [10] can be described thus: The drug is tested on Enterobacter cancerogenus strain: ATCC35316 for biotransformation. The drug concentrations were measured before and after a 12-h incubation by liquid-chromatography-coupled mass spectrometry (LC–MS). As to conditions: 2 µM.
Data set [11] is described as follows: The drug is tested on Providencia stuartii strain: ATCC25827 for biotransformation. The drug concentrations were measured before and after a 12-h incubation by liquid-chromatography-coupled mass spectrometry (LC–MS). As to conditions: 2 µM.
The conditions of data set [12]: bacteroides stercoris, 12 h, 2 µM.
Description: The drug is tested on Bacteroides stercoris strain: ATCC43183 for biotransformation. The drug concentrations were measured before and after a 12-h incubation by liquid-chromatography-coupled mass spectrometry (LC–MS)
The conditions of data set [13]: parabacteroides distasonis, 12 h, 2 µM.
Description: The drug is tested on Parabacteroides distasonis strain: ATCC8503 for biotransformation. The drug concentrations were measured before and after a 12-h incubation by liquid-chromatography-coupled mass spectrometry (LC–MS)
The conditions of data set [14]: parabacteroides johnsonii, 12 h, 2 µM.
Description: The drug is tested on Parabacteroides johnsonii strain: DSM18315 for biotransformation. The drug concentrations were measured before and after a 12-h incubation by liquid-chromatography-coupled mass spectrometry (LC–MS)
The conditions of data set [15]: enterocloster bolteae, 12 h, 2 µM.
Description: The drug is tested on Clostridium bolteae strain: ATCCBAA-613 for biotransformation. The drug concentrations were measured before and after a 12-h incubation by liquid-chromatography-coupled mass spectrometry (LC–MS)
The conditions of data set [16]: akkermansia muciniphila, 12 h, 2 µM.
Description: The drug is tested on Akkermansia muciniphila strain: ATCC BAA-835 for biotransformation. The drug concentrations were measured before and after a 12-h incubation by liquid-chromatography-coupled mass spectrometry (LC–MS)
Data set [17] is described as follows: The drug is tested on Bacteroides fragilis strain: HMW610 for biotransformation. The drug concentrations were measured before and after a 12-h incubation by liquid-chromatography-coupled mass spectrometry (LC–MS). Conditions: 2 µM.
A short description of data set [18]: The drug is tested on Bacteroides vulgatus strain: ATCC8482 for biotransformation. The drug concentrations were measured before and after a 12-h incubation by liquid-chromatography-coupled mass spectrometry (LC–MS). Conditions: phocaeicola vulgatus, 2 µM.
For data set [19] the following is noted: bacteroides intestinalis, 12 h, 2 µM.
Description: The drug is tested on Bacteroides intestinalis strain: DSM17393 for biotransformation. The drug concentrations were measured before and after a 12-h incubation by liquid-chromatography-coupled mass spectrometry (LC–MS)

For `CCc1cccc2c3c([nH]c12)C(CC)(CC(=O)O)OCC3` (stereo not given) [ETODOLAC], the “Bacterial Biotransformation” value is “Compound NOT metabolized” in data set [1]; “Compound metabolized” in data set [2]; “Compound NOT metabolized” in data set [3]; “Compound metabolized” in data set [4]; “Compound NOT metabolized” in data set [5]; “Compound NOT metabolized” in data set [6]. Further, the “Bacterial Biotransformation” value in data set [7], in [8], in data set [9], in data set [10], in data set [11] and in [12] was “Compound NOT metabolized” in each case. Besides, the “Bacterial Biotransformation” value in data set [13], in data set [14], in data set [15] and in data set [16] was “Compound NOT metabolized” throughout.

For `Cc1nc(-c2ccc(OCC(C)C)c(C#N)c2)sc1C(=O)O` [FEBUXOSTAT], the “Bacterial Biotransformation” value in data set [17] is recorded as “Compound NOT metabolized”; in data set [2] it was “Compound NOT metabolized”; in data set [3], “Compound NOT metabolized”; in data set [18] it was “Compound metabolized”; in [4], “Compound NOT metabolized”; in data set [5] it was “Compound NOT metabolized”. Moreover, the “Bacterial Biotransformation” value in data set [6], in data set [7], in data set [8], in data set [9], in data set [10] and in [11] was “Compound NOT metabolized” throughout. For the same compound, the “Bacterial Biotransformation” value in data set [19], in data set [12], in data set [13] and in data set [15] was “Compound NOT metabolized” each time.

On to `N=C(N)NC(=O)Cc1c(Cl)cccc1Cl` [GUANFACINE], for which the “Bacterial Biotransformation” value in data set [17], in data set [2], in [3], in [18], in data set [4] and in [5] was “Compound NOT metabolized” in each case. Besides, the “Bacterial Biotransformation” value in data set [6], in data set [7], in data set [8], in [9], in [10] and in [11] was “Compound NOT metabolized” throughout. Also, the “Bacterial Biotransformation” value in [19], in data set [12], in data set [13], in [14] and in data set [15] was “Compound NOT metabolized” each time.

With `O=C(O)CCC(=O)O.O=C(O[C@H]1CN2CCC1CC2)N1CCc2ccccc2[C@@H]1c1ccccc1` [SOLIFENACIN SUCCINATE], the “Bacterial Biotransformation” value in data set [1], in [17], in data set [2], in data set [3], in data set [5] and in [6] was “Compound NOT metabolized” throughout. Further, the “Bacterial Biotransformation” value in [7], in data set [8], in data set [9], in [10], in data set [11] and in [19] was “Compound NOT metabolized” throughout. Further, the “Bacterial Biotransformation” value in [12], in data set [13], in [14], in [15] and in data set [16] was “Compound NOT metabolized” throughout.

Turning to `O=C(CCCN1CCC2(CC1)C(=O)NCN2c1ccccc1)c1ccc(F)cc1` [SPIPERONE], the “Bacterial Biotransformation” value in data set [1], in data set [17], in data set [2], in data set [3], in [4] and in data set [5] was “Compound NOT metabolized” in each case. Further, the “Bacterial Biotransformation” value in data set [7], in data set [8], in [9], in [10], in data set [19] and in data set [12] was “Compound NOT metabolized” throughout. Also, the “Bacterial Biotransformation” value in data set [15] and in [16] was “Compound NOT metabolized” in each case.

`CCN1CCCC1CNC(=O)c1cc(S(N)(=O)=O)ccc1OC` (stereo not given) [SULPIRIDE]: the “Bacterial Biotransformation” value was “Compound metabolized” in [17]; “Compound NOT metabolized” in [3]; “Compound NOT metabolized” in data set [18]; “Compound NOT metabolized” in data set [4]; “Compound NOT metabolized” in data set [5]; “Compound NOT metabolized” in [6]. Also, the “Bacterial Biotransformation” value in data set [7], in [8], in data set [9], in data set [10], in [11] and in data set [19] was “Compound NOT metabolized” each time. In addition, the “Bacterial Biotransformation” value in [12], in [14], in data set [15] and in data set [16] was “Compound NOT metabolized” each time.

As to `CNS(=O)(=O)Cc1ccc2[nH]cc(CCN(C)C)c2c1.O=C(O)CCC(=O)O` [SUMATRIPTAN SUCCINATE], the “Bacterial Biotransformation” value in data set [17] is “Compound metabolized”; in data set [3], “Compound NOT metabolized”; in data set [18], “Compound NOT metabolized”; in data set [4] it was “Compound NOT metabolized”; in data set [5] it was “Compound NOT metabolized”; in data set [6], “Compound NOT metabolized”. Also, the “Bacterial Biotransformation” value in data set [7] was “Compound NOT metabolized”; in data set [8] it was “Compound NOT metabolized”; in data set [9], “Compound NOT metabolized”; in data set [10] it was “Compound metabolized”; in data set [11], “Compound NOT metabolized”; in data set [19], “Compound NOT metabolized”. Moreover, the “Bacterial Biotransformation” value in [13], in data set [14], in [15] and in data set [16] was “Compound NOT metabolized” throughout.

With `CN1C(C(=O)Nc2ccccn2)=C(O)c2sccc2S1(=O)=O` [TENOXICAM], the “Bacterial Biotransformation” value in data set [17], in data set [2], in data set [3], in data set [18], in [5] and in [7] was “Compound NOT metabolized” in each case. The “Bacterial Biotransformation” value in data set [8], in [9], in data set [11], in data set [19], in data set [12] and in [14] was “Compound NOT metabolized” each time. Moreover, the “Bacterial Biotransformation” value in data set [16] is recorded as “Compound NOT metabolized”.
